Laboratory results: a compilation of properties of binary mixtures (doi:10.1016/j.fluid.2020.112621)

Assay: xn = mol fraction of the nth substance listed
Conditions: 101 kPa

CCC(=O)O.CCC(=O)[O-].CC[NH+](CC)CCO + CCCC[n+]1ccn(C)c1.COP(=O)([O-])OC
viscosity [mPa·s]
Conditions	x1 = 0.08	x1 = 0.1549	x1 = 0.2364	x1 = 0.3281	x1 = 0.4183	x1 = 0.4953	x1 = 0.6252	x1 = 0.7416	x1 = 0.8667	x1 = 1
278.15 K	–	1099.1	655	428	329	294	241.4	208.2	184.2	244
283.15 K	1248.1	726	–	297	230.3	–	–	–	131	169
288.15 K	822	494	311	211.1	165.3	147.5	–	107.1	95.3	120.7
293.15 K	559	346	223.3	–	121.5	108.6	91.7	79.5	–	88.3
298.15 K	391	248.6	164.2	114.9	91.4	81.8	69.5	–	53.8	–
303.15 K	–	183.2	–	87.6	–	62.8	53.7	46.6	–	50.6
308.15 K	206.6	137.9	94.7	68	–	49.2	42.2	36.7	–	39.4
313.15 K	155.3	105.8	73.9	–	43.7	–	33.7	29.3	26.3	31.2
318.15 K	119	82.7	58.7	43.2	35.28	31.69	–	23.81	21.38	25.1
323.15 K	92.7	65.7	–	35.21	28.91	–	22.51	19.58	17.6	20.5
328.15 K	73.5	52.95	–	29.06	23.98	21.58	18.74	–	–	16.89
333.15 K	59.07	43.24	31.98	24.27	20.13	–	15.77	13.7	–	–
338.15 K	–	35.76	–	20.49	17.07	15.33	–	–	10.47	11.89
343.15 K	39.67	29.9	22.63	17.47	14.6	–	11.5	9.98	8.98	10.12
348.15 K	33.08	–	19.32	15.03	–	11.29	–	8.63	–	8.68
353.15 K	27.89	–	16.64	13.04	–	9.81	8.67	7.52	6.75	7.5
358.15 K	23.73	18.56	14.45	11.4	–	–	–	6.59	5.91	6.52
363.15 K	20.39	16.1	12.65	10.04	8.5	7.58	6.72	–	5.21	–
368.15 K	–	–	11.15	8.9	7.55	6.73	5.98	–	4.62	5.01
373.15 K	15.41	12.4	9.89	7.94	6.75	6.01	5.34	–	4.11	–

CCCC(=O)[O-].CC[NH+](CC)CCO + CCCC[n+]1ccn(C)c1.COP(=O)([O-])OC
viscosity [mPa·s]
Conditions	x1 = 0.1023	x1 = 0.1989	x1 = 0.3026	x1 = 0.3985	x1 = 0.498	x1 = 0.6001	x1 = 0.6613	x1 = 0.8006	x1 = 0.8788	x1 = 1
278.15 K	2058	1152.2	671	445	322.4	255.2	231	–	191	–
283.15 K	1309.9	764	459	311.5	228.5	–	165.4	140.9	136.5	–
288.15 K	–	522	322.9	223.4	165.9	133.2	–	103.2	99.6	96.9
293.15 K	587	367	233	–	–	–	90.5	77.1	–	71.6
298.15 K	411	–	172.1	122.9	93.3	75.8	69	58.8	56.4	54
303.15 K	294.9	–	129.8	94	72	–	53.58	45.58	43.6	41.42
308.15 K	216.6	146.7	99.8	–	56.55	46.34	42.29	35.94	34.28	32.34
313.15 K	162.7	112.5	–	57.98	–	37.1	–	28.77	27.36	25.64
318.15 K	–	87.9	61.99	46.61	36.5	–	27.53	–	22.14	20.63
323.15 K	96.9	–	49.98	37.99	29.93	24.77	–	19.2	18.14	16.82
328.15 K	76.7	56.15	40.85	31.37	24.84	–	18.87	15.97	15.04	13.87
333.15 K	61.58	45.81	33.8	26.18	20.85	17.35	15.88	13.42	12.6	11.56
338.15 K	50.11	37.83	28.27	22.09	17.68	14.74	–	–	10.66	–
343.15 K	41.29	–	23.89	–	15.13	–	11.56	9.74	9.09	8.27
348.15 K	34.41	26.65	20.38	16.18	–	10.92	9.99	8.41	7.82	7.08
353.15 K	28.99	22.7	–	14.02	11.35	9.51	8.69	–	–	–
358.15 K	24.65	19.51	15.22	–	9.95	8.33	–	6.39	5.92	–
363.15 K	21.15	16.9	13.3	10.76	8.77	7.36	6.72	5.63	5.2	4.65
368.15 K	18.3	14.76	–	9.52	7.78	6.53	5.97	4.99	4.6	–
373.15 K	15.96	12.97	10.37	8.47	6.95	5.84	5.33	4.45	4.08	3.61

CCCC[n+]1ccn(C)c1.COP(=O)([O-])OC + CCCCCC(=O)O.CCCCCC(=O)[O-].CC[NH+](CC)CCO
x2 = 0
Conditions	viscosity [mPa·s]
278.15 K	3503
283.15 K	2142
288.15 K	1361.1
293.15 K	895
308.15 K	305.8
313.15 K	224.9
323.15 K	129.4
328.15 K	100.9
338.15 K	64.25
343.15 K	52.35
348.15 K	43.18
353.15 K	36.02
368.15 K	22.22
373.15 K	19.25

CCCC[n+]1ccn(C)c1.COP(=O)([O-])OC + CCCC(=O)[O-].CC[NH+](CC)CCO
x2 = 0
Conditions	viscosity [mPa·s]
278.15 K	3503
283.15 K	2142
288.15 K	1361.1
293.15 K	895
303.15 K	426
308.15 K	305.8
313.15 K	224.9
323.15 K	129.4
333.15 K	79.9
338.15 K	64.25
343.15 K	52.35
353.15 K	36.02
358.15 K	30.38
363.15 K	25.86
368.15 K	22.22
